Measurements from patent US8933016B2, “Metallodrugs having improved pharmacological properties and methods of manufacture and use thereof” (priority 2012, dated 2015).
Converted amounts (≈) assume the structure as drawn. Peptide text beside a SMILES is read from it. * marks the point of attachment. X1 = COCCOCCOCCOCCOCCOCCOCCOCCOCCOCCOCCOCCNC(=O)CCN1C(=O)CC(*)C1=O

Experiments:
[1] = system: A. baumanii, BAA-747 (Ab); details: BAA-747
[2] = system: H. influenzae, 49247 (Hi)
E. coli, 25922 (Ec) = details: 25922 (Ec)
[3] = system: E. coli O157:H7, BAA-1883 (Ec F); details: O157:H7
[4] = system: S. pneumoniae, 49619 (Sp); details: 49619 (Sp)
[5] = Cytotoxicity toward human Huh7 liver cells
[6] = system: K. pneumonia, 700603 (Kp); assay type: cell-based; details: Mueller Hinton Broth

## CC[C@H](C)[C@H](NC(=O)[C@H](Cc1c[nH]cn1)NC(=O)CNC(=O)CN)C(=O)N[C@@H](CCCNC(=N)N)C(=O)N[C@@H](CCCNC(=N)N)C(=O)N[C@H](C(=O)N[C@H](C(=O)N[C@@H](CCCNC(=N)N)C(=O)N[C@@H](CCCCN)C(=O)N[C@H](C(=O)N[C@H](C(=O)N[C@@H](Cc1c[nH]cn1)C(=O)N[C@H](C(=O)N[C@H](C(=O)N[C@@H](CCCCN)C(=O)N[C@@H](CCCCN)C(=O)NCC(=O)NCC(=O)N[C@@H](CSC1CC(=O)N(CCC(=O)NCCOCCOCCOCCOCCOCCOCCOCCOCCOCCOCCOCCOC)C1=O)C(=O)O)[C@@H](C)CC)[C@@H](C)CC)[C@@H](C)CC)[C@@H](C)CC)[C@@H](C)CC)[C@@H](C)CC (some centres unmarked) [PEP 318 PEG 12] (H-GGHIRRIIRKIIHIIKKGGC(X1)-OH; C-terminus assumed)
[1]
  MIC Ab: 5.4 µM (≈ 16.1 µg/mL)
[2]
  MIC Hi: 2.7 µM (≈ 8.05 µg/mL)
E. coli, 25922 (Ec)
  MIC Ec: 10.7 µM (≈ 31.9 µg/mL)
[3]
  MIC Ec F: 5.4 µM (≈ 16.1 µg/mL)
[4]
  MIC Sp: 5.4 µM (≈ 16.1 µg/mL)
[5]
  IC50: 150 µM
[6]
  MIC Kp: 21.4 µM (≈ 63.8 µg/mL)
B. cepacia, 25416 (Bc)
  MIC Bc: 2.7 µM (≈ 8.05 µg/mL)
